The target of the data set is ATP-dependent translocase ABCB1 (Homo sapiens, UniProt P08183). Description: TP_TRANSPORTER: cell accumulation in P-gp transfected LNCaP cells. In kind it is functional, cell-based.

SMILES strings stand for the structures.

ATP-dependent translocase ABCB1, sequence (P08183 whole entry): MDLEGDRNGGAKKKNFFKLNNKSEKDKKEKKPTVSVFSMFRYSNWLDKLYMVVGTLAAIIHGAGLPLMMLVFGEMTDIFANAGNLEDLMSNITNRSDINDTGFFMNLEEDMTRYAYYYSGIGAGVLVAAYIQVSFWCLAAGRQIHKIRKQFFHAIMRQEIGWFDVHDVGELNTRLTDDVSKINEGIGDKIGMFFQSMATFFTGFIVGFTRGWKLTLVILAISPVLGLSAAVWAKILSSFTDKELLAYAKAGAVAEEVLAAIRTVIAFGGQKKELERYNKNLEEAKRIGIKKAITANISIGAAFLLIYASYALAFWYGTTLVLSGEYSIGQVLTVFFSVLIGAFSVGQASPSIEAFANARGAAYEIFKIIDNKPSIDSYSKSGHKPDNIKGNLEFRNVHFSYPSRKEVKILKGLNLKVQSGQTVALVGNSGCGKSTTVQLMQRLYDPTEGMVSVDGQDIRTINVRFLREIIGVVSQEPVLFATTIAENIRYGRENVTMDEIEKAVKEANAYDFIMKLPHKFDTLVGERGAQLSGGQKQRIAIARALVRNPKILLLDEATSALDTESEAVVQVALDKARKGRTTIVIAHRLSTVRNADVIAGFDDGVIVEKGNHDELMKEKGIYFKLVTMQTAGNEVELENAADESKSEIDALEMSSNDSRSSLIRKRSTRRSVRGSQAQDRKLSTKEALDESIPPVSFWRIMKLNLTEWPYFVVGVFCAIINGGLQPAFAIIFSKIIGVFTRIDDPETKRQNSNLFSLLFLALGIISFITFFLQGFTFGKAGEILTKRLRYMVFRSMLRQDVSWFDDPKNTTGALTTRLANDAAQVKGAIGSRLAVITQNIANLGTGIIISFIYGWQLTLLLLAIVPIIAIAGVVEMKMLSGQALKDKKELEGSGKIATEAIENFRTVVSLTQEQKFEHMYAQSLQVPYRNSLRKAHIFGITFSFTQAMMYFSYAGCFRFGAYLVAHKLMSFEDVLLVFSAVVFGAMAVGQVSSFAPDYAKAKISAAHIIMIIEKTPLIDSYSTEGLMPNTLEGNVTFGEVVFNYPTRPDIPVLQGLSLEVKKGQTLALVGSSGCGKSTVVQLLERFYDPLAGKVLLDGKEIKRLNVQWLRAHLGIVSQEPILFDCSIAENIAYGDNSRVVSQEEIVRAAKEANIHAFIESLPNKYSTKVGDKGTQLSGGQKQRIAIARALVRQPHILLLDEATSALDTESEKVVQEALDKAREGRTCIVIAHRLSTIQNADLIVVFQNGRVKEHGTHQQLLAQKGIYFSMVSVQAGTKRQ

As to `C[C@]12CCC(=O)C[C@@H]1CC[C@@H]1[C@@H]2CC[C@]2(C)[C@@H](O)CC[C@@H]12` [STANOLONE], the Activity result is “substrate [+]”.

For the molecule `CC[C@]1(O)C[C@@H]2CN(CCc3c([nH]c4ccccc34)[C@@](C(=O)OC)(c3cc4c(cc3OC)N(C)[C@H]3[C@@](O)(C(=O)OC)[C@H](OC(C)=O)[C@]5(CC)C=CCN6CC[C@]43[C@@H]65)C2)C1` [VINBLASTINE], the Activity result is “substrate [+]”.

For the origin of these results see ChEMBL document CHEMBL2074532, “P-glycoprotein increases the efflux of the androgen dihydrotestosterone and reduces androgen responsive gene activity in prostate tumor cells” (Prostate, 2004).
